{
  "source": "patent US6525188B2",
  "about": "“Nuclear retinoic acid co-receptor” (Karo Bio Ab, priority 1994, dated 2003)",
  "system": "RXR / OR-1 on a DR4-containing promoter",
  "test": "PAP reporter gene under DR4-containing promoter, transfected embryonal carcinoma P19 EC cells",
  "conditions": "100 nM 9-cis retinoic acid, 36 h, PAP activity",
  "experimental": "Embryonal carcinoma P19 EC cells were cultured in Dulbecco's modified Eagle's medium supplemented with 10% foetal calf serum, nonessential amino acids, penicillin (100 units/ml) and streptomycin (100 mg/ml). […] Cells were plated in duplicate in 35 mm Petri dishes and transfected at 30% confluency, using lipofectin reagent (Bethesada Research Laboratories, USA) according to the recommendations of the supplier.\nTransfections were repeated 6 times with different plasmid preparations and data from a representative experiment is presented here.\nSince OR-1 and RXR formed a specific complex on the DR4 sequence in vitro, coexpression of OR-1 in embryonal carcinoma (EC) cells that express endogenous RXR was tested to determine whether it could affect the activity of a reporter gene under the control of a DR4-containing promoter.",
  "data": [
    {"smiles": "CC1=C(/C=C/C(C)=C\\C=C\\C(C)=C\\C(=O)O)C(C)(C)CCC1", "note": "[9-cis retinoic acid]", "values": [
      {"measurement": "activation of RXR on a DR4-containing promoter", "setting": "EC cells with endogenous RXR, OR-1 expressed", "result": "activation"},
      {"measurement": "induction of RXR on a reporter containing DR4", "setting": "embryonal carcinoma (EC) cells with endogenous RXR, without OR-1 expression", "result": "no induction"}
    ]}
  ]
}
